# Reference: PubChem BioAssay (NCI)
#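 At the GI50, growth is halved. Definition used: TGI = concentration required for complete inhibition of growth.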
# Assays:
# Assay in all cases: inhibition of tumour cell growth, NCI panel, 384-well format
# [1] = tested on: A498 renal
# [2] = tested on: OVCAR-5 ovarian
# [3] = tested on: T-47D breast
# [4] = tested on: EKVX NSCLC
# [5] = tested on: SF-295 CNS
# [6] = tested on: SN12C renal
# [7] = tested on: MDA-MB-435 melanoma
# [8] = tested on: RXF 393 renal
# [9] = tested on: RPMI-8226 leukemia
# [10] = tested on: 786-0 renal
# [11] = tested on: HL-60(TB) leukemia
# [12] = tested on: MALME-3M melanoma
# [13] = tested on: SK-MEL-5 melanoma
# [14] = tested on: IGROV1 ovarian
# [15] = tested on: BT-549 breast
# [16] = tested on: SNB-19 CNS
# [17] = tested on: U251 glioblastoma
# [18] = tested on: SW-620 colon
# [19] = tested on: MDA-MB-231 breast
# [20] = tested on: NCI/ADR-RES ovarian
# [21] = tested on: COLO 205 colon
# [22] = tested on: OVCAR-4 ovarian
# [23] = tested on: PC-3 prostate
# [24] = tested on: HCT-15 colon
# [25] = tested on: MOLT-4 leukemia
# [26] = tested on: SK-OV-3 ovarian
# [27] = tested on: ACHN renal
# [28] = tested on: SF-539 CNS
# [29] = tested on: KM12 colon
# [30] = tested on: SNB-75 CNS
# [31] = tested on: HS 578T breast
# [32] = tested on: HOP-62 NSCLC
# [33] = tested on: TK-10 renal
# [34] = tested on: SF-268 CNS
# [35] = tested on: NCI-H226 lung
# [36] = tested on: OVCAR-8 ovarian
# [37] = tested on: MDA-MB-468 breast
# [38] = tested on: NCI-H522 lung
# [39] = tested on: NCI-H322M lung
# [40] = tested on: LOX IMVI melanoma
# [41] = tested on: UACC-257 melanoma
# [42] = tested on: HCT-116 colon
# [43] = tested on: DU-145 prostate
# [44] = tested on: HCC-2998 colon
# [45] = tested on: UO-31 renal
# [46] = tested on: HT29 colon
# [47] = tested on: SK-MEL-28 melanoma
# [48] = tested on: CCRF-CEM leukemia
# [49] = tested on: K-562 leukemia
# [50] = tested on: NCI-H460 NSCLC
# [51] = tested on: M14 melanoma
# [52] = tested on: CAKI-1 renal
# [53] = tested on: NCI-H23 lung
# [54] = tested on: MCF7 breast
# [55] = tested on: OVCAR-3 ovarian
# [56] = tested on: UACC-62 melanoma
# [57] = tested on: A549 NSCLC
# [58] = tested on: HOP-92 NSCLC
# [59] = tested on: SR leukemia
# [60] = tested on: SK-MEL-2 melanoma
compound,measurement,setting,value
Cc1cnc(CNC(=O)c2c(=O)c3ccc(N4CCCN(C)CC4)nc3n3c2sc2ccccc23)cn1,GI50,[1],112 nM
same,TGI,[1],1550 nM
same,GI50,[2],27700 nM
same,TGI,[2],> 100000 nM
same,GI50,[3],21500 nM
same,TGI,[3],> 100000 nM
same,GI50,[4],34000 nM
same,TGI,[4],> 100000 nM
same,GI50,[5],608 nM
same,TGI,[5],> 100000 nM
same,GI50,[6],307 nM
same,TGI,[6],> 100000 nM
same,GI50,[7],2900 nM
same,TGI,[7],> 100000 nM
same,GI50,[8],80.6 nM
same,TGI,[8],> 100000 nM
same,GI50,[9],58.3 nM
same,TGI,[9],1620 nM
same,GI50,[10],359 nM
same,TGI,[10],12800 nM
same,GI50,[11],58.6 nM
same,TGI,[11],2260 nM
same,GI50,[12],806 nM
same,TGI,[12],> 100000 nM
same,GI50,[13],172 nM
same,TGI,[13],48000 nM
same,GI50,[14],323 nM
same,TGI,[14],> 100000 nM
same,GI50,[15],1380 nM
same,TGI,[15],> 100000 nM
same,GI50,[16],322 nM
same,TGI,[16],> 100000 nM
same,GI50,[17],517 nM
same,TGI,[17],> 100000 nM
same,GI50,[18],99.1 nM
same,TGI,[18],> 100000 nM
same,GI50,[19],397 nM
same,TGI,[19],> 100000 nM
same,GI50,[20],> 100000 nM
same,TGI,[20],> 100000 nM
same,GI50,[21],244 nM
same,TGI,[21],> 100000 nM
same,GI50,[22],383 nM
same,TGI,[22],5560 nM
same,GI50,[23],1600 nM
same,TGI,[23],22300 nM
same,GI50,[24],87.7 nM
same,TGI,[24],2760 nM
same,TGI,[25],17.5 nM
same,GI50,[26],1350 nM
same,TGI,[26],> 100000 nM
same,GI50,[27],64.3 nM
same,TGI,[27],> 100000 nM
same,GI50,[28],259 nM
same,TGI,[28],> 100000 nM
same,GI50,[29],1030 nM
same,TGI,[29],2450 nM
same,GI50,[30],832 nM
same,TGI,[30],> 100000 nM
same,GI50,[31],69.7 nM
same,TGI,[31],> 100000 nM
same,GI50,[32],122 nM
same,TGI,[32],> 100000 nM
same,GI50,[33],9170 nM
same,TGI,[33],> 100000 nM
same,GI50,[34],24.1 nM
same,TGI,[34],88 nM
same,GI50,[35],741 nM
same,TGI,[35],> 100000 nM
same,GI50,[36],234 nM
same,TGI,[36],> 100000 nM
same,GI50,[37],12400 nM
same,TGI,[37],> 100000 nM
same,GI50,[38],19900 nM
same,TGI,[38],> 100000 nM
same,GI50,[39],877 nM
same,TGI,[39],> 100000 nM
same,GI50,[40],138 nM
same,TGI,[40],1410 nM
same,GI50,[41],7630 nM
same,TGI,[41],> 100000 nM
same,GI50,[42],112 nM
same,TGI,[42],1450 nM
same,GI50,[43],490 nM
same,TGI,[43],33500 nM
same,GI50,[44],1660 nM
same,TGI,[44],19200 nM
same,GI50,[45],1540 nM
same,TGI,[45],> 100000 nM
same,GI50,[46],330 nM
same,TGI,[46],> 100000 nM
same,GI50,[47],27000 nM
same,TGI,[47],> 100000 nM
same,GI50,[48],24.2 nM
same,TGI,[48],111 nM
same,GI50,[49],231 nM
same,TGI,[49],16300 nM
same,GI50,[50],22.8 nM
same,TGI,[50],1120 nM
same,GI50,[51],781 nM
same,TGI,[51],> 100000 nM
same,GI50,[52],607 nM
same,TGI,[52],> 100000 nM
same,GI50,[53],714 nM
same,TGI,[53],> 100000 nM
same,GI50,[54],416 nM
same,TGI,[54],1750 nM
same,GI50,[55],462 nM
same,TGI,[55],48500 nM
same,GI50,[56],175 nM
same,TGI,[56],> 100000 nM
same,GI50,[57],36.9 nM
same,TGI,[57],1340 nM
same,GI50,[58],353 nM
same,TGI,[58],> 100000 nM
NC(=O)Nc1cc(-c2cccc(F)c2)sc1C(=O)N[C@H]1CCCNC1,GI50,[1],32.3 nM
same,TGI,[1],144 nM
same,GI50,[2],289 nM
same,TGI,[2],1620 nM
same,GI50,[3],12700 nM
same,TGI,[3],25400 nM
same,GI50,[4],389 nM
same,TGI,[4],2150 nM
same,GI50,[5],142 nM
same,TGI,[5],461 nM
same,GI50,[59],36.5 nM
same,TGI,[59],154 nM
same,GI50,[6],130 nM
same,TGI,[6],968 nM
same,GI50,[7],143 nM
same,TGI,[7],302 nM
same,GI50,[8],12.1 nM
same,TGI,[8],43.2 nM
same,GI50,[9],34.9 nM
same,TGI,[9],186 nM
same,GI50,[10],179 nM
same,TGI,[10],1050 nM
same,GI50,[11],120 nM
same,TGI,[11],245 nM
same,GI50,[12],185 nM
same,TGI,[12],1740 nM
same,GI50,[13],127 nM
same,TGI,[13],408 nM
same,GI50,[14],79.6 nM
same,TGI,[14],887 nM
same,GI50,[15],16.6 nM
same,TGI,[15],105 nM
same,GI50,[16],377 nM
same,TGI,[16],2290 nM
same,GI50,[17],385 nM
same,TGI,[17],2880 nM
same,GI50,[18],595 nM
same,TGI,[18],2120 nM
same,GI50,[19],300 nM
same,TGI,[19],1570 nM
same,GI50,[20],9190 nM
same,TGI,[20],23000 nM
same,GI50,[21],261 nM
same,TGI,[21],1080 nM
same,GI50,[22],69.6 nM
same,TGI,[22],348 nM
same,GI50,[23],259 nM
same,TGI,[23],3960 nM
same,GI50,[24],1280 nM
same,TGI,[24],2890 nM
same,GI50,[25],40.6 nM
same,TGI,[25],189 nM
same,GI50,[26],136 nM
same,TGI,[26],380 nM
same,GI50,[27],49.7 nM
same,TGI,[27],295 nM
same,GI50,[28],22.8 nM
same,TGI,[28],104 nM
same,GI50,[29],22 nM
same,TGI,[29],228 nM
same,GI50,[30],188 nM
same,TGI,[30],1260 nM
same,GI50,[31],13.2 nM
same,TGI,[31],284 nM
same,GI50,[32],146 nM
same,TGI,[32],565 nM
same,GI50,[33],109 nM
same,TGI,[33],357 nM
same,GI50,[34],132 nM
same,TGI,[34],910 nM
same,GI50,[35],508 nM
same,TGI,[35],2300 nM
same,GI50,[37],202 nM
same,TGI,[37],698 nM
same,GI50,[38],128 nM
same,TGI,[38],589 nM
same,GI50,[39],161 nM
same,TGI,[39],967 nM
same,GI50,[60],108 nM
same,TGI,[60],284 nM
same,GI50,[40],359 nM
same,TGI,[40],1240 nM
same,GI50,[41],1970 nM
same,TGI,[41],11100 nM
same,GI50,[42],1000 nM
same,TGI,[42],2670 nM
same,GI50,[43],290 nM
same,TGI,[43],1340 nM
same,GI50,[44],10.6 nM
same,TGI,[44],149 nM
same,GI50,[45],362 nM
same,TGI,[45],1510 nM
same,GI50,[46],221 nM
same,TGI,[46],700 nM
same,GI50,[47],1500 nM
same,TGI,[47],8600 nM
same,GI50,[48],40.4 nM
same,TGI,[48],192 nM
same,GI50,[49],103 nM
same,TGI,[49],237 nM
same,GI50,[50],284 nM
same,TGI,[50],2060 nM
same,GI50,[51],45.1 nM
same,TGI,[51],224 nM
same,GI50,[52],294 nM
same,TGI,[52],1500 nM
same,GI50,[53],66.5 nM
same,TGI,[53],267 nM
same,GI50,[54],53.3 nM
same,TGI,[54],12200 nM
same,GI50,[55],103 nM
same,TGI,[55],539 nM
same,GI50,[56],319 nM
same,TGI,[56],3330 nM
same,GI50,[57],315 nM
same,TGI,[57],1570 nM
same,GI50,[58],38.1 nM
same,TGI,[58],407 nM
